The values below come from ChEMBL document CHEMBL1156832, “Cationic N-confused porphyrin derivative as a better molecule scaffold for G-quadruplex recognition” (Bioorg Med Chem, 2010).

Assay [1] has as its system Nucleic Acid. Description: Induction of G-quadruplex stabilization in G4C oligonucleotide assessed as change in DNA melting temperature at [compound/G4C ratio = 5] in pH 7.4 10 mM Tris-HCl, 1 mM EDTA buffer by CD spectroscopy. It is filed as nucleic-acid assay.
In assay [2] the test system is Nucleic Acid. The assay is described as follows: Binding affinity to human bcl2 promoter G-quadruplex sequence by surface plasmon resonance spectroscopy. Type of assay: nucleic-acid assay. In general terms: In SPR one partner is held on a chip, and binding of the other changes the refractive index at the surface.
In assay [3] the test system is Nucleic Acid. The assay is described as follows: Induction of G-quadruplex stabilization in G4C oligonucleotide assessed as change in DNA melting temperature at [compound/G4C ratio = 3] in pH 7.4 10 mM Tris-HCl, 1 mM EDTA buffer by CD spectroscopy. Type of assay: nucleic-acid assay.
Assay [4] deals with Nucleic Acid. Description: Selectivity for human bcl2 promoter G-quadruplex sequence over double stranded DNA by surface plasmon resonance spectroscopy. Type of assay: nucleic-acid assay.
Assay [5] concerns Nucleic Acid. Description: Induction of G-quadruplex stabilization in G4C oligonucleotide assessed as change in DNA melting temperature at [compound/G4C ratio = 2] in pH 7.4 10 mM Tris-HCl, 1 mM EDTA buffer by CD spectroscopy. Type of assay: nucleic-acid assay.
Assay [6] relates to Nucleic Acid. The assay is described as follows: Binding affinity to human c-myc promoter G-quadruplex sequence by surface plasmon resonance spectroscopy. It is filed as nucleic-acid assay.
Assay [7] relates to Nucleic Acid. Description: Selectivity for human telomeric G-quadruplex sequence over double stranded DNA by surface plasmon resonance spectroscopy. It is filed as nucleic-acid assay.
Assay [8] relates to Nucleic Acid. The assay is described as follows: Induction of G-quadruplex stabilization in G4C oligonucleotide assessed as change in DNA melting temperature at [compound/G4C ratio = 4] in pH 7.4 10 mM Tris-HCl, 1 mM EDTA buffer by CD spectroscopy. It is filed as nucleic-acid assay.
Assay [9] concerns Nucleic Acid. The assay is described as follows: Selectivity for human c-myc promoter G-quadruplex sequence over double stranded DNA by surface plasmon resonance spectroscopy. Type of assay: nucleic-acid assay.
Assay [10] deals with Nucleic Acid. The assay is described as follows: Binding affinity to dsDNA by surface plasmon resonance spectroscopy. It is filed as nucleic-acid assay.
The subject of assay [11] is Nucleic Acid. Description: Induction of G-quadruplex stabilization in G4C oligonucleotide assessed as change in DNA melting temperature at [compound/G4C ratio = 1] in pH 7.4 10 mM Tris-HCl, 1 mM EDTA buffer by CD spectroscopy. Type of assay: nucleic-acid assay.
Assay [12] has as its system Nucleic Acid. Description: Induction of G-quadruplex stabilization in G4C oligonucleotide in pH 7.4 10 mM Tris-HCl, 1 mM EDTA buffer by CD spectroscopy. It is filed as nucleic-acid assay.
The test system of assay [13] is Nucleic Acid. The assay is described as follows: Binding affinity to human telomeric G-quadruplex sequence by surface plasmon resonance spectroscopy. Type of assay: nucleic-acid assay.
Assay [14] concerns Nucleic Acid. The assay is described as follows: Binding affinity to F21T G-quadruplex DNA at 2.5 uM in presence of competitor dsDNA by competitive FRET melting assay. Type of assay: nucleic-acid assay.
For assay [15], the system named is Nucleic Acid. The assay is described as follows: Induction of G-quadruplex stabilization in HT4 oligonucleotide assessed as inhibition of DNA synthesis by Taq DNA polymerase stop assay.
Assay [16] relates to Nucleic Acid. Description: Induction of structural transition from antiparallel to the mixed-type hybrid G-quadruplex structure in human telomeric sequence (T2AG3)4 by CD spectroscopy. It is filed as nucleic-acid assay.

Calls of active or inactive are those of the source. No cut-off for these calls is given here.

Consider `C1=Cc2nc1c(-c1ccc(C[n+]3ccccc3)cc1)c1nc(c(-c3ccc(C[n+]4ccccc4)cc3)c3ccc([nH]3)c(-c3ccc(C[n+]4ccccc4)cc3)c3ccc([nH]3)c2-c2ccc(C[n+]3ccccc3)cc2)C=C1`, for which the ΔTm (as a rule, the shift of the melting midpoint relative to a reference) in [1] amounted to 7.6 °C; in [3] it was 5 °C; in [5] it was 3.3 °C; in assay [8], 6.5 °C; in assay [11] it was 2.2 °C. For the same compound, the KA in [2] was determined as 1.74 ×10⁷ /M; in [6] it was 5.82 ×10⁷ /M; in assay [10], 6.85 ×10⁵ /M; in assay [13], 2.37 ×10⁷ /M. Further, the Selectivity ratio in [4] amounted to 25; in assay [7] it was 34; in assay [9] it was 85. For the same compound, in [12], the outcome was Active.
On to `C[n+]1ccc(-c2c3nc(c(-c4cc[n+](C)cc4)c4ccc([nH]4)c(-c4cc[n+](C)cc4)c4ccc([nH]4)c(-c4cc[n+](C)cc4)c4nc2C=C4)C=C3)cc1`, for which the ΔTm in assay [1] is 10 °C; in assay [3] it was 9.6 °C; in assay [5] it was 7.5 °C; in assay [8], 11.2 °C; in assay [11], 4.2 °C. The KA in assay [2] came out at 3.09 ×10⁷ /M; in assay [6] it was 1.01 ×10⁸ /M; in assay [10], 3.62 ×10⁶ /M; in assay [13], 4.65 ×10⁷ /M. Also, the Selectivity ratio in [4] worked out at 9; in [7] it was 13; in [9], 28.
Turning to `C1=C/C2=C(\c3ccc(C[n+]4ccccc4)cc3)c3c[nH]c(c3)/C(c3ccc(C[n+]4ccccc4)cc3)=C3/C=CC(=N3)/C(c3ccc(C[n+]4ccccc4)cc3)=c3/cc/c([nH]3)=C(\c3ccc(C[n+]4ccccc4)cc3)C1=N2`, the ΔTm in assay [1] came to 9.3 °C; in [3], 8.3 °C; in assay [5], 6.6 °C; in assay [8], 9.2 °C; in [11] it was 3.8 °C. Besides, the result in [14] and in assay [16] was Active. Further, in assay [15], the Activity entry was “Dose-dependent effect”. The KA in assay [2] was determined as 1.42 ×10⁷ /M; in assay [6], 7.54 ×10⁶ /M; in assay [10], 1.32 ×10⁵ /M; in assay [13], 5.32 ×10⁶ /M. In addition, the Selectivity ratio in assay [4] was found to be 108; in [7], 40; in [9], 57.
